Test results taken from patent publication US7419984B2, “Pyrimidines and uses thereof” (Cell Therapeutics, Inc., priority 2002, dated 2008).

The compounds below were run against T1, human LPAAT-β (Homo sapiens, UniProt O15120) (assay: LPAAT-β cell-free assay). Settings: Sf9 cell membrane overexpressing recombinant LPAAT-β.
T1 construct: the full-length human LPAAT-β cDNA was amplified by PCR; poly-histidine tag (N); made in house; host or cells: Sf9 insect cells (baculovirus, pFastBac HTc); the membrane fraction was used as the enzyme
T1 sequence (O15120 24-278): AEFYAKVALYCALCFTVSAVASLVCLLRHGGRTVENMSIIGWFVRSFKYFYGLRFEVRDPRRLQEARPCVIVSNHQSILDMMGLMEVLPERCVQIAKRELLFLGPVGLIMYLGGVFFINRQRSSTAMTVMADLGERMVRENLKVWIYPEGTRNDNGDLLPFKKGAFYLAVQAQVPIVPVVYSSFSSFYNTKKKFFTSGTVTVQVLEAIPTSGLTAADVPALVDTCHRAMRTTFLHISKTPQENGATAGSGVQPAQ
Assay type: biochemical
Source text: For the construction of Baculovirus expression vectors, the full-length human LPAAT-β cDNA was amplified by PCR from the DNA template pCE9.LPAAT-β (West et al., DNA Cell Bid. 16.691-701 (1997)) using the primers 5′-[…] […] […] […]-3′ (olpb1F; SEQ ID NO:1) and 5′-[…] […] […]-3′ (olpb1R; SEQ ID NO:2). The ˜870 bp fragment generated was reamplified by PCR using the primers 5′ […] […] […] […] ATC-3′ (olpb2F; SEQ ID NO:3) and 5′-[…] […] […]-3′ (olpb1R; SEQ ID NO:2). The ˜890 bp fragment generated was then cleaved with Sal I and Xba I for insertion into pFastBac™ HTc vector (Life Technologies, Gaithersberg, M.d.) between the Sal I and Xba I sites for the generation of the plasmid pFB.LPAAT-β. This plasmid was then transformed into E. coli DH10Bac™ (Life Technologies, Gaithersberg, M.d.) for the generation of recombinant Bacmid DNA for transfection in HighFive (Invitrogen, San Diego, Calif.) or SF9 insect cells for the production of recombinant Baculovirus stocks using the protocol described in the Bac-to-Bac® Baculovirus Expression System (Life Technologies, Gaithersberg, M.d.), a eukaryotic expression system for generating recombinant baculovirus through site-specific transposition in E. coli. Viral stocks harvested from the transfected cells can then be used to infect fresh insect cells for the subsequence expression of LPAAT-β fusion protein with a poly-histidine tag and a myc-epitope near its N-terminus. The membrane fraction from these Sf9 cells would be the source of LPAAT enzyme.
For the preparation of membranes from Sf9 Cells, all steps are performed on ice or at 4° C. Sf9 cell pellets (˜10^8 cells) were thawed and resuspended in 1-2 ml of buffer A (20 mM Hepes, pH 7.5, 1 mM DTT, 1 mM EDTA, 20% w/v glycerol, 1 mM Benzamidine, 1 μg/ml soybean trypsin inhibitor (SBTI), 1 μug/ml pepstatin A) w/o DTT but with 1 mM Pefabloc. The cells were lysed by sonication using a Branson Sonifier at output=2, duty cycle=2, 10 pulses each at 10 s. with the tip of small sonicator probe submerged but not touching the walls. DTT was then added to 1 mM from a 1 M stock. The samples were centrifuged at 1500 rpm for 5 min. The low speed supernatant was saved and centrifuged (TLA 100.3 rotor, polycarbonate tubes, 2 ml/tube or 1.5 ml/tube minimum) at 100000×g for 1 hr. The high speed pellet was resuspend in Buffer A with a probe sonicator (10 pulses @ output #2 and duty cycle 20%) as a source of LPAAT enzyme.
LPAAT-β catalyzes the transfer of an acyl group from a donor such as acyl-CoA to LPA. The transfer of the acyl group from acyl-CoA to LPA leads to the release of free CoA, which can be reacted with the thiol reagent, 5,5′-dithiobis(2-nitrobenzoic acid) (DTNB). The reaction between DTNB and the free sulfhydryl group from CoA generates a yellow-colored product, 3-carboxylato-4-nitrothiophenolate (CNP), that absorbs at 413 nm. LPAAT-β derived from Sf9 cell membrane overexpressing LPAAT-β were resuspended in HEPES saline buffer (20 mM HEPES pH 7.5, 150 mM NaCl), 1 mg/ml BSA and 72 μl aliquots were distributed into 96-well microtiter plates. 8 μl of compound of interest at 200 μM dissolved in 100% DMSO was added into each well. […] of 1 mM 18:1-CoA and 1 mM sn-1-18:1 lysoPA was then added to each well to initiate the reaction and allowed to run at room temperature for 25 min. 100 μl of 1 mM DTNB in 100% ethanol was then added to each well to quench the reaction and for color development. The absorbance at 405 nm, measured using a spectrophotometer plate reader, is proportional to the activity of LPAAT-2 in the sample. This colorimetric assay was used for the high throughput screening of LPAAT inhibitors.
The radiometric assay was carried out in Sf9 cell membrane overexpressing LPAAT-β resuspended in HEPES-saline buffer, pH 7.5, 1 mg/ml BSA, 1 mM EDTA and 200 μM [^14C]18:1-CoA and 200 μM sn-1-18:1 lysoPA.

Row | Compound | IC50 [nM]
1 | CCOc1ccc(Br)cc1-c1cc(Nc2ccc(C(C)=NO)cc2)nc(N)n1 [Example 130, 1-{4-[2-Amino-6-(5-bromo-2-ethoxy-phenyl)-pyrimidin4-ylamino]-phenyl}-ethanone-oxime] | 84
2 | CCOc1ccc(Cl)cc1-c1cc(Nc2ccc(F)cc2)nc(N)n1 [Example 94, 6-(5-Chloro-2-ethoxy-phenyl)-N*4*-(4-fluoro-phenyl)-pyrimidine-2,4-diamine] | 32
3 | COc1ccccc1COc1ccc(Br)cc1-c1cc(Nc2ccc(Cl)cc2)nc(N)n1 [Example 182, 6-[5-Bromo-2-(2-methoxy-benzyloxy)-phenyl]-N*4*-(4-chloro-phenyl)-pyrimidine-2,4-diamine] | 4
4 | COC(=O)c1ccc(Nc2cc(-c3cc(Cl)ccc3Cl)nc(N)n2)cc1 [Example 21, 4-[2-Amino-6-(2,5-dichloro-phenyl)-pyrimidin-4-yl-amino]-benzoic acid methyl ester] | 330
5 | CCOc1ccc(Cl)cc1-c1cc(Nc2ccc(CCCCO)cc2)nc(N)n1 [Example 93, 4-{4-[2-Amino-6-(5-chloro-2-ethoxy-phenyl)-pyrimidin4-ylamino]-phenyl}-butan-1-ol] | 120
6 | Cc1ccc(Cl)cc1-c1cc(Nc2ccc(Cl)cc2)nc(N)n1 [Example 27, 6-(5-Chloro-2-methyl-phenyl)-N*4*-(4-chloro-phenyl)-pyrimidine-2,4-diamine] | 28
7 | Cc1ccc(C)c(-c2cc(Nc3ccc(CCO)cc3)nc(N)n2)c1 [Example 74, 2-{4-[2-Amino-6-(2,5-dimethyl-phenyl)-pyrimidin-4-ylamino]-phenyl}-ethanol] | 550
8 | CCc1cccc(Nc2cc(-c3cc(Cl)ccc3C)nc(N)n2)c1 [Example 115, 6-(5-Chloro-2-methyl-phenyl)-N*4*-(3-ethyl-phenyl)-pyrimidine-2,4-diamine] | 210
9 | CC(C)Oc1ccc(Br)cc1-c1cc(Nc2ccc(CCO)cc2)nc(N)n1 [Example 141, 2-{4-[2-Amino-6-(5-bromo-2-isopropoxy-phenyl)-pyrimidin-4-ylamino]-phenyl}-ethanol] | 390
10 | CCOc1ccc(Cl)cc1-c1cc(Nc2ccc(CCO)cc2)nc(N)n1 [Example 47, 2-{4-[2-Amino-6-(5-chloro-2-ethoxy-phenyl)-pyrimidin4-ylamino]-phenyl}-ethanol] | 28
11 | Cc1ccc(Br)cc1-c1cc(Nc2ccc(N=[N+]=[N-])cc2)nc(N)n1 [Example 81, [6-(5-Bromo-2-methyl-phenyl)-(4-azido-phenyl)-pyrimidine]-2,4-diamine] | 190
12 | Cc1nc(Nc2ccc(Br)cc2)cc(-c2cc(Cl)ccc2C)n1 [Example 41, [6-(5-Chloro-2-methyl-phenyl)-2-methyl-pyrimidin-4-yl]-(4-bromo-phenyl)-amine] | 21
13 | CNC(=O)c1cc(Nc2cc(-c3cc(Br)ccc3C)nc(N)n2)ccc1Cl [Example 75, 5-[2-Amino-6-(5-bromo-2-methyl-phenyl)-pyrimidin-4-ylamino]-2-chloro-N-methyl-benzamide] | 180
14 | CNC(=O)c1cc(Nc2cc(-c3cc(Cl)ccc3C)nc(N)n2)ccc1Br [Example 77, 5-[2-Amino-6-(5-chloro-2-methyl-phenyl)-pyrimidin4-ylamino]-2-bromo-N-methyl-benzamide] | 370
15 | Cc1ccc(Br)cc1-c1cc(Nc2ccc([N+](=O)[O-])cc2)nc(N)n1 [Example 88, 6-(5-Bromo-2-methyl-phenyl)-N*4*-(4-nitro-phenyl)-pyrimidine-2,4-diamine] | 21
16 | COc1ccc(Cl)cc1-c1cc(Nc2ccc(C#N)cc2)nc(N)n1 [Example 45, 4-[2-Amino-6-(5-chloro-2-methoxy-phenyl)-pyrimidin-4-ylamino]-benzonitrile] | 33
17 | Cc1ccc(Cl)cc1-c1cc(Nc2ccc(Cl)c(CO)c2)nc(N)n1 [Example 113, {5-[2-Amino-6-(5-chloro-2-methyl-phenyl)-pyrimidin-4-ylamino]-2-chloro-phenyl}-methanol] | 190
18 | COc1ccc(Cl)cc1-c1cc(Nc2ccc3c(c2)OCO3)nc(N)n1 [Example 13, N*4*-Benzo [1,3]dioxol-5-yl-6-(5-chloro-2-methoxy-phenyl)-pyrimidine-2,4-diamine] | 100
19 | CCOc1ccc(Cl)cc1-c1cc(Nc2ccc(CCCO)cc2)nc(N)n1 [Example 92, 3-{4-[2-Amino-6-(5-chloro-2-ethoxy-phenyl)-pyrimidin4-ylamino]-phenyl}-propan-1-ol] | 230
20 | Nc1nc(Nc2ccc(C(F)(F)F)cc2)cc(-c2cc(Cl)ccc2Cl)n1 [Example 18, 6-(2,5-Dichloro-phenyl)-N*4*-(4-trifuoromethyl-phenyl)-pyrimidine-2,4-diamine] | 82
21 | COc1ccc(Cl)cc1-c1cc(Nc2ccc(Br)cc2)nc(C)n1 [Example 39, [6-(5-Chloro-2-methoxy-phenyl)-2-methyl-pyrimidin-4-yl]-(4-bromo-phenyl)-amine] | 180
22 | CCOc1ccc(Br)cc1-c1cc(Nc2ccc(C(C)=O)cc2)nc(N)n1 [Example 127, 1-{4-[2-amino-6-(5-bromo-2-ethoxyphenyl)pyrimidin-4-ylamino]phenyl}ethanone] | 34
23 | CCOc1ccc(Cl)cc1-c1cc(Nc2ccc3cn[nH]c3c2)nc(N)n1 [Example 54, 6-(5-Chloro-2-ethoxy-phenyl)-N*4*-(1H-indazol-6-yl)-pyrimdine-2,4-diamine] | 24
24 | CCOc1ccc(Cl)cc1-c1cc(Nc2ccc(S(C)(=O)=O)cc2)nc(N)n1 [Example 124, 6-(5-chloro-2-ethoxyphenyl)-N*4*-(4-methanesulfonylphenyl)pyrimidine-2,4-diamine] | 110
25 | Cc1ccc(Br)cc1-c1cc(Nc2ccc(Cl)cc2)nc(N)n1 [Example 84, 6-(5-Bromo-2-methyl-phenyl)-N*4*-(4-chloro-phenyl)-pyrimidine-2,4-diamine] | 31
26 | CN(C)CCCOc1ccc(Br)cc1-c1cc(Nc2ccc(Cl)cc2)nc(N)n1 [Example 156, 6-[5-Bromo-2-(3-dimethylamino-propoxy)-phenyl]-N*4*-(4-chloro-phenyl)-pyrimidine-2,4-diamine] | 1400
27 | CCOc1ccc(Br)cc1-c1cc(Nc2ccc(C(N)=O)cc2)nc(N)n1 [Example 186, 4-[2-Amino-6-(5-bromo-2-ethoxy-phenyl)-pyrimidin4-ylamino]-benzamide] | 740
28 | Cc1ccc(Cl)cc1-c1cc(Nc2ccc(C(F)(F)F)cc2)nc(N)n1 [Example 29, 6-(5-Chloro-2-methyl-phenyl)-N*4*-(4-trifluoromethyl-phenyl)-pyrimidine-2,4-diamine] | 134
29 | CCOc1ccc(Cl)cc1-c1cc(Nc2ccccc2Cl)nc(N)n1 [Example 117, 6-(5-Chloro-2-ethoxy-phenyl)-N*4*-(2-chloro-phenyl)-pyrimidine-2,4-diamine] | 4900
